In PMC8881610 (Nature Communications, 2022):
Changes are numbered by the printed parent chain.

How the values were obtained:
Test in all cases: cAMP accumulation assay (LANCE Ultra cAMP kit), GIPR WT, mutant or modified constructs
Assay type in all cases: cell-based
Set-up in all cases: acylated tirzepatide to the full-length or modified; Flag; expressed in transfected cells; host or cells: HEK293T
GIPR [1] = target: T1, GIPR (Homo sapiens, UniProt P48546, D191A/Q138A/R196A); conditions: GIPR Q138A/D191A/R196A, HEK293T
T1 sequence (P48546 22-466 Q138A/D191A/R196A): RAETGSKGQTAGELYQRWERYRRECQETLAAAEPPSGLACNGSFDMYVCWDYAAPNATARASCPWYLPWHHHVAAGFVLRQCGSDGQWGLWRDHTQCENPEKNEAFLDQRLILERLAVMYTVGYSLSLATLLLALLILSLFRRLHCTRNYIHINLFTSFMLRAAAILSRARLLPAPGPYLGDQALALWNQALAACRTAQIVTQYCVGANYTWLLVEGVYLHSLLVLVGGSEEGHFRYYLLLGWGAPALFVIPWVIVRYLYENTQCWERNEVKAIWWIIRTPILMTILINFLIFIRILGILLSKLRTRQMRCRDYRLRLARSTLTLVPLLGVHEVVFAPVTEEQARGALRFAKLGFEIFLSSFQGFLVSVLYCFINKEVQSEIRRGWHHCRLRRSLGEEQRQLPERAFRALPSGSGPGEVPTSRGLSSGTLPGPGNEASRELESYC
Summary of the method: (§1)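 HEK293T cells transiently transfected with human GIPR WT or mutant constructs (pcDNA3.1), used after 24 h. The cells were stimulated with peptide agonists for 40 min at RT in HBSS with 5 mM HEPES, 0.1% BSA or casein, and 0.5 mM IBMX. cAMP was read by LANCE Ultra TR-FRET (Eu-cAMP tracer/ULight anti-cAMP, 1 h RT, 620/650 nm).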

GIPR [2] = target: T2, GIPR (Homo sapiens, UniProt P48546, E135A); conditions: GIPR E135A, HEK293T
T2 sequence (P48546 22-466 E135A): T1 sequence (P48546 22-466 Q138A/D191A/R196A) with E114A, A117Q, A170D, A175R
Summary of the method: as §1

GIPR [3] = target: T3, GIPR (Homo sapiens, UniProt P48546, W209A); conditions: GIPR W209A, HEK293T
T3 sequence (P48546 22-466 W209A): T1 sequence (P48546 22-466 Q138A/D191A/R196A) with A117Q, A170D, A175R, W188A
Summary of the method: as §1

[4] = read-out: cAMP pEC50 (converted)

In the case of CCCCCCCCCCCCCCCC(=O)N[C@@H](CCC(=O)NCCCC[C@H](NC(=O)[C@H](CC(=O)O)NC(=O)[C@H](CO)NC(=O)[C@@H](NC(=O)[C@H](Cc1ccccc1)NC(=O)[C@@H](NC(=O)CNC(=O)[C@H](CCC(N)=O)NC(=O)C(C)(C)NC(=O)[C@@H](N)Cc1c[nH]cn1)[C@@H](C)O)[C@@H](C)O)C(=O)N[C@@H](CO)C(=O)N[C@@H](CCCCN)C(=O)N[C@@H](Cc1ccc(O)cc1)C(=O)N[C@@H](CC(C)C)C(=O)N[C@@H](CC(=O)O)C(=O)N[C@@H](CCC(=O)O)C(=O)N[C@@H](CCCNC(=N)N)C(=O)N[C@@H](C)C(=O)N[C@@H](C)C(=O)N[C@@H](CCC(N)=O)C(=O)N[C@@H](CC(=O)O)C(=O)N[C@@H](Cc1ccccc1)C(=O)N[C@H](C(=O)N[C@@H](CCC(N)=O)C(=O)N[C@@H](Cc1c[nH]c2ccccc12)C(=O)N[C@@H](CC(C)C)C(=O)N[C@@H](CC(C)C)C(=O)N[C@@H](CC(=O)O)C(=O)NCC(=O)NCC(=O)N1CCC[C@H]1C(=O)N[C@@H](CO)C(=O)N[C@@H](CO)C(=O)NCC(=O)N[C@@H](C)C(=O)N1CCC[C@H]1C(=O)N1CCC[C@H]1C(=O)N1CCC[C@H]1C(=O)N[C@@H](CO)C(N)=O)C(C)C)C(=O)O [Peptide 20], the EC50 (GIPR [1]; [4]) is reported as 30.2 nM, the Emax (GIPR [1]; HEK-293T) is reported as 56.3 ± 12.2% and the EC50 (GIPR [2]; [4]) is reported as 0.0427 nM. It also gave an Emax (GIPR [2]; HEK-293T) of 100 ± 1.44%, an EC50 (GIPR [3]; [4]) of 3.63 pM and an Emax (GIPR [3]; HEK-293T) of 100 ± 1.45%.
